The text below walks through data of patent publication US9718769B2, “Pulverulent compositions of a complex between an acid and a metal and method of preparation thereof” (INNOV'IA 3I, priority 2012, dated 2017).

Entries after “also recorded” stand apart in the source; their conditions may differ. Marks after values point to notes of the source that are not given here.

Series [1] deals with laying hens. Briefly: Feeding laying hens: laying performance and egg parameters. The settings on record: for Albumen / Average weight of the eggs / Consumption index / Daily food intake / Laying frequency / Weight of eggs / Yolk / Final body weight: 0.13% methionine equivalent in feed, mean; for Final body weight: after 6 weeks. The class given is in vivo. The protocol: Eighty laying hens aged 45 weeks were housed for 6 weeks and were distributed at random into […] equal groups (20 per group). Each hen was kept in an individual cage at a temperature of (20±2° C.) with controlled lighting conditions. All the hens were offered a similar basic diet, with or without addition of DLM, of HMTBA-Ca or of a 50/50 mixture (HMTBA-Ca: […] All the laying hens had free access to drinking water and were fed throughout the 6-week period of the experiment.

Series [2] relates to growing chickens. Briefly: Feeding growing chickens: growth performance. The conditions noted are these: 46-day-old chickens, 0.3% in feed (0.24% finishing phase); mean ± standard deviation. Format: in vivo. The protocol: (§1) One hundred and forty-seven commercial chickens (1 day old, 48 g) were housed from day 1 to day 46, including the starting phase (days 1-21) and the finishing phase (days 22-46). All the chickens were randomly distributed in seven equal groups (21 per group), and each group was made up of three subgroups of 7 birds each. Each subgroup was kept in an enclosure at a temperature of (28±2° C.), with controlled lighting conditions. All the chickens were offered a similar basic diet, with or without addition of DLM, HMTBA or HMTBA-Ca at levels of 0 (control) or 0.3% in the starting phase and 0 or 0.24% in the finishing phase (Table 4). All the chickens had free access to food and drinking water throughout the test period of 46 days. The weight of the chickens was measured every week and food intake was monitored throughout the experiment.
(§2) At the end of the experiment, the birds were weighed individually and sacrificed. The abdominal fat, the muscles of the thigh and of the breast were taken, lyophilized and weighed.

Series [3] concerns growing chickens. Briefly: Feeding growing chickens: composition of the carcass. Format: in vivo. The conditions noted are these: for DB, weight of the muscles of the breast / DL, weight of the muscles of the thigh / PDAT, ratio of the weight of the abdominal fat to that of the eviscerated chicken / PDB, ratio of the weight of the muscles of the breast (without bone or skin) to that of the eviscerated chicken / PDL, ratio of the weight of the muscles of the thigh (without bone or skin) to that of the eviscerated chicken: 46-day chickens, mean ± standard deviation. The protocol:
as §1, §2

The subject of series [4] is growing chickens. Briefly: Feeding growing chickens: apparent digestibility of nutrients. The class given is in vivo. The conditions noted are these: 0.3% in feed; for Apparent digestibility of ash / Apparent digestibility of crude fats / Apparent digestibility of crude proteins / Apparent digestibility of dry matter: 46-day chickens, mean ± standard deviation for 10 chickens. The protocol: as §1
The excrement of the chickens was collected for the 3 days following the 42nd day of the experiment, were frozen and stored (at −20° C.) for later chemical analyses.

Series [5] is described as follows: Crystallinity by DSC in isothermal mode and X-ray diffraction. Format: physicochemical. The conditions noted are these: deduced from DSC (R) or X-ray diffraction (T7). The protocol:
Samples T7 and R were analysed by X-ray diffraction using a Bruker APEX-II Quasar diffractometer equipped with a molybdenum microsource (λ=0.71073 Å). Each sample was ground beforehand in a mortar for two minutes. Each of the powders thus obtained is then transferred to a capillary with diameter of 0.5 mm that is transparent to X-rays, and is then mounted on a goniometer. The recording characteristics are perfectly identical for each sample, namely: […]
(In general: Differential scanning calorimetry records heat flow against a reference as temperature is scanned.)

Take `CSCCC(O)C(=O)[O-].CSCCC(O)C(=O)[O-].[Ca+2]` (stereo not drawn) [HMTBA-Ca, (HMTBA)2Ca]: in series [1] (6 weeks), the Albumen is given as 39.53 g/egg, the “Average weight of the eggs” value is reported as 64.9 g/egg, the Consumption index came to 1.82 g feed/g egg and the Daily food intake turned out to be 112.7 g/day. In addition, in series [1] (6 weeks), the Laying frequency stood at 95%, the Weight of eggs is 62.0 g/day and the Yolk was found to be 16.47 g/egg. Further, in series [1] (6 weeks, relative to DLM), the “Albumen content of the eggs, more relative to the eggs of hens fed with DLM” value is recorded as 3% and the “Average weight of the eggs, higher relative to that obtained with DLM” value is reported as 2.3%. Besides, in series [1], the Final body weight turned out to be 1897.2 g/hen. Moreover, in series [2], the “Feeding:gain” value is listed as 1.91 ± 0.12 g:g, the Final body weight is 3.38 ± 0.28^ab kg/chicken, the Food intake came to 144.53 ± 20.93 g/chicken/day and the “Gain in body weight” value is 75.08 ± 6.18^ab g/chicken/day. In series [3] (0.3% in feed), the “DB, weight of the muscles of the breast” value is 617.54 ± 45.21^bc g; the “DL, weight of the muscles of the thigh” value is 588.64 ± 38.07^ab g; the “PDAT, ratio of the weight of the abdominal fat to that of the eviscerated chicken” value is reported as 2.49 ± 0.59^b %; the “PDB, ratio of the weight of the muscles of the breast (without bone or skin) to that of the eviscerated chicken” value is on record as 22.98 ± 3.00^b %. Also, the “PDL, ratio of the weight of the muscles of the thigh (without bone or skin) to that of the eviscerated chicken” value in series [3] (0.3% in feed) is listed as 22.06 ± 1.64^c %. In addition, the “Percentage of abdominal fat (in words)” value in series [3] (chickens, 0.3% in feed, 46 days) is on record as “increase in the percentage of abdominal fat”. Moreover, the “Weight of the muscles of the thigh and breast relative to DLM / the other groups (in words)” value in series [3] (chickens, 46 days) was “significantly higher; also recorded: highest weight of muscles of the thigh and breast”. In addition, in series [4], the “Apparent digestibility of ash” value is reported as 44.62 ± 0.89^a %, the “Apparent digestibility of crude fats” value is recorded as 90.28 ± 0.20^c %, the “Apparent digestibility of crude proteins” value is recorded as 66.44 ± 0.37^cd % and the “Apparent digestibility of dry matter” value is given as 81.80 ± 0.32^d %. In addition, the “Digestibility of the nutrients relative to the other two forms of methionine (in words)” value in series [4] (chickens, 46 days) is “far better digestibility”.

Take `CSCCC(O)C(=O)[O-].CSCCC(O)C(=O)[O-].[Ca+2]` (stereo not drawn) [R, (HMTBA)2Ca]: the Degree of crystallinity in series [5] was 100%.

Regarding `CSCCC(N)C(=O)O` (racemic) [DLM, DL-methionine, reference compound], in series [1] (6 weeks), the Albumen came out at 38.38 g/egg, the “Average weight of the eggs” value came out at 63.4 g/egg, the Consumption index was 1.87 g feed/g egg and the Daily food intake was 112.4 g/day. In addition, in series [1] (6 weeks), the Laying frequency is 95%, the Weight of eggs was found to be 60.3 g/day and the Yolk was 16.38 g/egg. The Final body weight in series [1] was 1834.9 g/hen. In series [2], the “Feeding:gain” value is given as 2.01 ± 0.10 g:g, the Final body weight is recorded as 3.17 ± 0.15^ab kg/chicken, the Food intake is listed as 141.51 ± 0.24 g/chicken/day and the “Gain in body weight” value is on record as 70.47 ± 3.37^ab g/chicken/day. Besides, in series [3] (0.3% in feed), the “DB, weight of the muscles of the breast” value is on record as 596.88 ± 56.68^abc g; the “DL, weight of the muscles of the thigh” value is given as 586.03 ± 23.43^ab g; the “PDAT, ratio of the weight of the abdominal fat to that of the eviscerated chicken” value is 1.88 ± 0.43^a %; the “PDB, ratio of the weight of the muscles of the breast (without bone or skin) to that of the eviscerated chicken” value is recorded as 22.77 ± 1.44^b %. Moreover, the “PDL, ratio of the weight of the muscles of the thigh (without bone or skin) to that of the eviscerated chicken” value in series [3] (0.3% in feed) is recorded as 20.12 ± 0.22^a %. In series [4], the “Apparent digestibility of ash” value was 56.02 ± 1.01^b %, the “Apparent digestibility of crude fats” value amounted to 86.15 ± 0.93%, the “Apparent digestibility of crude proteins” value was 63.70 ± 2.85^cd % and the “Apparent digestibility of dry matter” value is 78.22 ± 1.70^c %.
